Results published in patent US20260184742A1, “PEPTIDES” (CAROCELL BIO LIMITED, priority 2022, published 2026).
Where two headings read alike, the source gives them in different places. Where no end group is shown, it is not given here.

Legend:
[1] = system: pro-inflammatory cytokines including Th1 (IFNγ, TNFα, IL-1β) and Th2 cytokines (IL-13 and IL-4); assay: Cytokine levels from the Skimune assays; conditions: current concentrations and lipid formulation; GvHD type assays
[2] = system: human TNFα in activated M1-macrophages (THP1-derived, LPS-activated); assay: In vitro anti-inflammatory activity (ELISA), TNFα as marker; type: cell-based; conditions: compared with T0, 100 ng/mL
Protocol: The anti-inflammatory response of each free peptide and each peptide-polymer formulation was determined using TNFα as a marker. The anti-inflammatory bioactivity was assessed using enzyme-linked immunosorbent assay (ELISA) for quantitative detection of human TNFα in activated M1-macrophages. THP1 human monocytes were differentiated into macrophages (M0), which were then activated (overnight) with lipopolysaccharide (LPS) into M1-macrophages. LPS prompts the abundant production of many pro-inflammatory cytokines from macrophages, including TNF-α, which actively contributes to the inflammatory response. At the T0 and T4 (after 4 weeks storage at RT or 4° C.) time points, each JEL peptide and each JEL-polymer formulation was incubated in previously LPS-activated M1-macrophages for 24 h at 37° C. After incubation, supernatants were collected, centrifuged and stored at −80° C. in readiness for the enzyme-linked immunosorbent assay (ELISA). Each supernatant sample was defrosted and the ELISA assay undertaken according to the Invitrogen protocol. FIGS. 1-4 show the concentrations of human TNFα detected by ELISA after incubation with each free and polymer loaded peptide at a concentration of 100 ng/mL.

[3] = system: AD phenotype of skin biopsies (white space; Filaggrin, Involucrin, TSLP); assay: Atopic Dermatitis (AD) model in skin biopsies; type: cell-based; conditions: for phenotype: donor ALC1373, 0.1 and 1.0 μg/ml, appeared an improvement above Clobetasol; for phenotype ("white space") analysis: 0.1, 1.0 and 2.5 μg/ml, not as apparent as Clobetasol
Protocol: The AD phenotype was assessed by measuring the intensity of the “white space” within the biopsies—this was increased from 20% in the media alone control to 80% on AD induction and reduced with Clobetasol (a topical corticosteroid) to 40%. All concentrations of the compound (JEL0305, JEL2603, JEL1103 or JEL0802) reduced the white space by between 50 and 60% as a similar trend to Clobetasol. Three further donors (ALC1373, ALC1366 and ALC1365) were used to develop atopic dermatitis after treatment with activated PBMC and a cytokine cocktail model and assessed phenotypically as well as by biomarker (Filaggrin, Involucrin and TSLP) by immunohistochemistry. For 2 donors (ALC1366 and ALC1365) Filaggrin and Involucrin were reduced compared non-AD induced skin biopsies in media alone. This is the expected response for AD induction. In the presence of the control drug Clobetasol the expression of Filaggrin and Involucrin was increased due to the drug reversing the AD phenotype. […] But this was not as apparent as Clobetasol more than likely due to the lipid formulation causing an upregulation of cytokines. […] Filaggrin results were inconclusive.

[4] = system: HLA (human leucocyte antigen) mismatched GvHD model; assay: Skimune skin explant assay, HLA mismatched GvHD model; type: cell-based; conditions: LNP formulation of the compound, added throughout the mixed lymphocyte reaction and spiked into the skin explant
[5] = system: pro-inflammatory cytokines including Th1 (IFNγ, TNFα, IL-1β) and Th2 cytokines (IL-13 and IL-4)
[6] = after 4 weeks storage at room temperature (RT)
[7] = donors ALC1366 and ALC1365, compound at 0.1, 1.0 and 2.5 μg/ml

Compound | pro-inflammatory cytokines [1] | anti-inflammatory activity (human TNFα detected by ELISA) after storage ([2]; after 4 weeks storage at 4° C.) | anti-inflammatory activity (human TNFα detected by ELISA) after storage [2, 6] | phenotype [3] | phenotype ("white space") analysis ([3]; donors ALC1366 and ALC1365) | Graft versus Host reaction grade [4] | inhibition of the Graft versus Host response [4] | pro-inflammatory cytokines [5] | further results
SRALLIFQKI [JEL0802, Ser-Arg-Ala-Leu-Leu-Ile-Phe-Gln-Lys-Ile] | significant increases | – | – | – | – | – | – | – | –
HKSRARLIFHEGPCGVRR [JEL1103] | – | maintained | maintained | some improvement of the phenotype | improved and reversal of damage | Grade III | no inhibition | significant increases | –
VSRATRIFKLSQLRGQCA [JEL0305, Val-Ser-Arg-Ala-Thr-Arg-Ile-Phe-Lys-Leu-Ser-Gln-Leu-Arg-Gly-Gln-Cys-Ala] | significant increases | – | – | – | – | – | – | – | –
C[C@H]1C[C@H]2[C@@H]3CCC4=CC(=O)C=C[C@]4(C)[C@@]3(F)[C@@H](O)C[C@]2(C)[C@@]1(O)C(=O)CCl [Clobetasol, reference compound] | – | – | – | – | – | – | – | – | intensity of the "white space" within the biopsies ([3]; 20% in media alone control, 80% on AD induction): 40%; Filaggrin expression by immunohistochemistry [3, 7]: increased; Involucrin expression by immunohistochemistry [3, 7]: increased
SRALKIFLATRKDRSPWH [JEL2603] | – | some diminution of anti-inflammatory activity | activity is lost | some improvement of the phenotype | improved and reversal of damage | Grade III | no inhibition | significant increases | –
